Measurements reported in US20230148214A1, “INDAZOLES AND AZAINDAZOLES AS LRRK2 INHIBITORS” (ESCAPE Bio, Inc., priority 2020, published 2023).

Columns and labels:
LRRK2 G2019S = target: T1, LRRK2 G2019S (Homo sapiens, UniProt Q5S007, G2019S); experiment: LRRK2 Kinase Activity Assay (LanthaScreen TR-FRET), G2019S; format: biochemical; settings: recombinant G2019S-LRRK2, 25 μM ATP, 400 nM LRRKtide, 60 min; class symbols
T1 construct: purchased Life Technologies PV4881
Procedure, shortened: (§1)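 IC50 fitted to the compound-dependent loss of TR-FRET signal. Each kinase form, wild type or G2019S, phosphorylated the fluorescein-tagged ERM-derived LRRKtide in the presence of ATP and compound dilutions over 60 min at room temperature; quench contained 10 mM EDTA and 2 nM anti-pERM antibody (final).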

LRRK2 WT = target: T2, LRRK2 WT (Homo sapiens, UniProt Q5S007); experiment: LRRK2 Kinase Activity Assay (LanthaScreen TR-FRET), wild type; format: biochemical; settings: recombinant wild type LRRK2, 25 μM ATP, 400 nM LRRKtide, 60 min; class symbols
T2 construct: purchased Life Technologies PR8604B
Procedure, shortened: as §1

T2 sequence (Q5S007 whole entry): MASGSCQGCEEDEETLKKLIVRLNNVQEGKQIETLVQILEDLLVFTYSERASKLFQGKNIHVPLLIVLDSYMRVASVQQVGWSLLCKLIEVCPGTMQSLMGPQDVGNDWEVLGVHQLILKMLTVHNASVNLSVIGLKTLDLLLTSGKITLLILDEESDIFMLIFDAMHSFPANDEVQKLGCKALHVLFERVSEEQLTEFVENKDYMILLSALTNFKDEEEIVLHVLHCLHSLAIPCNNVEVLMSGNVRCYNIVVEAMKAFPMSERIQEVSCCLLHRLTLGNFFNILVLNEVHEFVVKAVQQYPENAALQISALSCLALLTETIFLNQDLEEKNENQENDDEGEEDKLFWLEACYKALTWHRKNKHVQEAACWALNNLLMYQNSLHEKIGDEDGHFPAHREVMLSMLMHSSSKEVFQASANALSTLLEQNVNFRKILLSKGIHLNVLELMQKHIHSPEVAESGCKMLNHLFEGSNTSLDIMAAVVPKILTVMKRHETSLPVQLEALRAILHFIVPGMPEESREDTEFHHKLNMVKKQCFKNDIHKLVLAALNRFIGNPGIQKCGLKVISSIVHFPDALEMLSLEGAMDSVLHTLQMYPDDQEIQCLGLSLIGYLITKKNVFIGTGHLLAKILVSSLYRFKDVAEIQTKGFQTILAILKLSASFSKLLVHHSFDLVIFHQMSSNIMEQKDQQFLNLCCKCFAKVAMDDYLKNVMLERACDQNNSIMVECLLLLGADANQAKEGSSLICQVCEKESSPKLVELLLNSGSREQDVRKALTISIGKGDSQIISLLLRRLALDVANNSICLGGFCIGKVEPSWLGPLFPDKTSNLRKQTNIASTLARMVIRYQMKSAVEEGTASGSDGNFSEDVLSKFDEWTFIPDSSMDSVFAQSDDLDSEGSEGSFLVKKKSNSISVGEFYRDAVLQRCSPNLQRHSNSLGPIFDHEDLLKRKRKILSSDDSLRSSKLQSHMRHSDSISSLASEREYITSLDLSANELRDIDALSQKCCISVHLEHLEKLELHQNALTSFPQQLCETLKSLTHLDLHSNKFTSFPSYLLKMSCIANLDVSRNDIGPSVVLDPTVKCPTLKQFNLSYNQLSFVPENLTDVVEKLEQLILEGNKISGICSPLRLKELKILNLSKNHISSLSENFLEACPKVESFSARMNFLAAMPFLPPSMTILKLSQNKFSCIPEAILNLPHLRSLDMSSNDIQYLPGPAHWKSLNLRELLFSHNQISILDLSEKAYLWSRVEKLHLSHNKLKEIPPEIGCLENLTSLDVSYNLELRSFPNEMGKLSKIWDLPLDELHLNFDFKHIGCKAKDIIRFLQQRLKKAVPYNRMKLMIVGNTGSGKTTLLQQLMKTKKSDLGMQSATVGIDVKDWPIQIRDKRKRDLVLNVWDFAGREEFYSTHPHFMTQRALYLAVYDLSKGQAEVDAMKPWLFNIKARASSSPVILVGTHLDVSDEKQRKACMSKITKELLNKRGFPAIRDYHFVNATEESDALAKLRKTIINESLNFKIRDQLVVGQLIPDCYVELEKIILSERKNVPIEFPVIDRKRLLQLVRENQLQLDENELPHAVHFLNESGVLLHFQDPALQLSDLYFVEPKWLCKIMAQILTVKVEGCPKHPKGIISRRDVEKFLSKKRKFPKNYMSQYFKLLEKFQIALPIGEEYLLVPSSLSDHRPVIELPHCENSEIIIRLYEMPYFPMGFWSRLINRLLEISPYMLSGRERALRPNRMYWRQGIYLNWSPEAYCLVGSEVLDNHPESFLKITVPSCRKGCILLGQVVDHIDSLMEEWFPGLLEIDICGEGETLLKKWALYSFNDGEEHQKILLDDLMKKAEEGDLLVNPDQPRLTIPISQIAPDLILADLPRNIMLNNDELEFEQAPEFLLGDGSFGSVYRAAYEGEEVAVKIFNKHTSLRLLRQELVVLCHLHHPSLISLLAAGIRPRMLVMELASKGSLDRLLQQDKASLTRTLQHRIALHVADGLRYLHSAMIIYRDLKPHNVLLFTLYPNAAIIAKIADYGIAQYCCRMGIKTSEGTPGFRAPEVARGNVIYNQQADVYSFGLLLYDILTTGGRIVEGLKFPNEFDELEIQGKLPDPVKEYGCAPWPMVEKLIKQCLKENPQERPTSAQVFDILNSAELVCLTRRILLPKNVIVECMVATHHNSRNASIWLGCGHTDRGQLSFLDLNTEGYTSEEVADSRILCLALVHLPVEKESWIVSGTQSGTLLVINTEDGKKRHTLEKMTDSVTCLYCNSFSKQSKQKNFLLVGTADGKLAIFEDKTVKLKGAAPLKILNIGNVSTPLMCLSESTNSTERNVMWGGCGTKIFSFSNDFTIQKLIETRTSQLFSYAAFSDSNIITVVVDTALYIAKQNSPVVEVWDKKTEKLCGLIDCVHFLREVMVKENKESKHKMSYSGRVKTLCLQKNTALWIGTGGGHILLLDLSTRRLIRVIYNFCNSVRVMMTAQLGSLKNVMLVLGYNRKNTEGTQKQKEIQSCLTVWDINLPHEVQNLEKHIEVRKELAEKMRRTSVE
T1 sequence (Q5S007 whole entry G2019S): as the sequence (Q5S007 whole entry) above, with G2019S counted along it

| SMILES | IC50 (LRRK2 G2019S) | IC50 (LRRK2 WT) |
| --- | --- | --- |
| N#Cc1ccc2c(c1)CCC[C@H]2Nc1ccc2[nH]nc(-c3cnco3)c2c1 (single isomer, unassigned) [Example 119, enantiomer 1, 5-((3-(Oxazol-5-yl)-1H-indazol-5-yl)amino)-5,6,7,8-tetrahydronaphthalene-2-carbonitrile] | < 100 nM | 100 to 1000 nM |
| N#Cc1cnc2c(c1)CCC[C@H]2Nc1ccc2[nH]nc(-c3cnco3)c2c1 (single isomer, unassigned) [Example 120, enantiomer 1, 8-((3-(Oxazol-5-yl)-1H-indazol-5-yl)amino)-5,6,7,8-tetrahydroquinoline-3-carbonitrile] | < 100 nM | < 100 nM |
| CCc1cc(-c2n[nH]c3ccc(O[C@@H]4CCCc5cc(C#N)cnc54)cc23)ccn1 (single isomer, unassigned) [Example 121, enantiomer 1, 8-((3-(2-Ethylpyridin-4-yl)-1H-indazol-5-yl)oxy)-5,6,7,8-tetrahydroquinoline-3-carbonitrile] | < 100 nM | < 100 nM |
| N#Cc1cc2c(cn1)[C@H](Oc1ccc3[nH]nc(-c4cnco4)c3c1)CCC2 (single isomer, unassigned) [Example 122, enantiomer 1, 8-((3-(Oxazol-5-yl)-1H-indazol-5-yl)oxy)-5,6,7,8-tetrahydroisoquinoline-3-carbonitrile] | < 100 nM | 100 to 1000 nM |
| COc1cc(-c2n[nH]c3ccc(O[C@H]4CCCc5cc(C#N)cnc54)cc23)ccn1 (single isomer, unassigned) [Example 123, enantiomer 1, 8-((3-(2-Methoxypyridin-4-yl)-1H-indazol-5-yl)oxy)-5,6,7,8-tetrahydroquinoline-3-carbonitrile] | < 100 nM | < 100 nM |
| N#Cc1ccc2c(c1)CC[C@@H]2Oc1ccc2[nH]nc(C3CC3)c2c1 (single isomer, unassigned) [Example 124, enantiomer 1, 1-((3-Cyclopropyl-1H-indazol-5-yl)oxy)-2,3-dihydro-1H-indene-5-carbonitrile] | < 100 nM | 100 to 1000 nM |
| N#Cc1cnc2c(c1)CCC[C@@H]2Nc1ccc2[nH]nc(Br)c2c1 (single isomer, unassigned) [Example 125, enantiomer 1, 8-((3-Bromo-1H-indazol-5-yl)amino)-5,6,7,8-tetrahydroquinoline-3-carbonitrile] | < 100 nM | 100 to 1000 nM |
| N#Cc1cnc2c(c1)CCC[C@@H]2Nc1ccc2[nH]nc(Br)c2c1 (single isomer, unassigned) [Example 125, enantiomer 2, 8-((3-Bromo-1H-indazol-5-yl)amino)-5,6,7,8-tetrahydroquinoline-3-carbonitrile] | 100 to 1000 nM | 1000 to 10000 nM |
| N#Cc1cnc2c(c1)CCC[C@@H]2Nc1ccc2[nH]nc(Cl)c2c1 (single isomer, unassigned) [Example 126, enantiomer 1, 8-((3-Chloro-1H-indazol-5-yl)amino)-5,6,7,8-tetrahydroquinoline-3-carbonitrile] | 1000 to 10000 nM | 1000 to 10000 nM |
| N#Cc1cnc2c(c1)CCC[C@@H]2Nc1ccc2[nH]nc(Cl)c2c1 (single isomer, unassigned) [Example 126, enantiomer 2, 8-((3-Chloro-1H-indazol-5-yl)amino)-5,6,7,8-tetrahydroquinoline-3-carbonitrile] | < 100 nM | 100 to 1000 nM |
| Cc1c(C#N)ccc2c1CC[C@@H]2Nc1ccc2[nH]nc(I)c2c1 (single isomer, unassigned) [Example 127, enantiomer 1, 1-((3-Iodo-1H-indazol-5-yl)amino)-4-methyl-2,3-dihydro-1H-indene-5-carbonitrile] | 100 to 1000 nM | 100 to 1000 nM |
| N#Cc1ccc2c(c1)CC[C@H]2Nc1ccc2[nH]nc(I)c2c1 (single isomer, unassigned) [Example 128, enantiomer 1, 1-((3-Iodo-1H-indazol-5-yl)amino)-2,3-dihydro-1H-indene-5-carbonitrile] | 100 to 1000 nM | 100 to 1000 nM |
| N#Cc1ccc2c(c1)CC[C@H]2Nc1ccc2[nH]nc(I)c2c1 (single isomer, unassigned) [Example 128, enantiomer 2, 1-((3-Iodo-1H-indazol-5-yl)amino)-2,3-dihydro-1H-indene-5-carbonitrile] | < 100 nM | 100 to 1000 nM |
| Cc1n[nH]c2ccc(N[C@H]3CCc4c(C#N)cccc43)cc12 (single isomer, unassigned) [Example 129, enantiomer 1, 1-((3-Methyl-1H-indazol-5-yl)amino)-2,3-dihydro-1H-indene-4-carbonitrile] | 100 to 1000 nM | 1000 to 10000 nM |
| Cc1n[nH]c2ccc(N[C@H]3CCc4ccc(C#N)cc43)cc12 (single isomer, unassigned) [Example 130, enantiomer 1, 3-((3-Methyl-1H-indazol-5-yl)amino)-2,3-dihydro-1H-indene-5-carbonitrile] | 100 to 1000 nM | 1000 to 10000 nM |
| Cc1n[nH]c2ccc(N[C@H]3CCc4ccc(C#N)cc43)cc12 (single isomer, unassigned) [Example 130, enantiomer 2, 3-((3-Methyl-1H-indazol-5-yl)amino)-2,3-dihydro-1H-indene-5-carbonitrile] | < 100 nM | 100 to 1000 nM |
| Cc1cc(C#N)cc2c1[C@@H](Nc1ccc3[nH]nc(-c4cnco4)c3c1)CC2 (single isomer, unassigned) [Example 131, enantiomer 1, 7-Methyl-1-((3-(oxazol-5-yl)-1H-indazol-5-yl)amino)-2,3-dihydro-1H-indene-5-carbonitrile] | < 100 nM | < 100 nM |
| N#Cc1cc(F)c2c(c1)CC[C@H]2Nc1ccc2[nH]nc(-c3cnco3)c2c1 (single isomer, unassigned) [Example 132, enantiomer 1, 5-((5-Cyano-7-fluoro-2,3-dihydro-1H-inden-1-yl)amino)-3-(oxazol-5-yl)-1H-indazol-2-ium] | < 100 nM | < 100 nM |
| N#Cc1ccc2c(n1)CCC[C@H]2Oc1ccc2[nH]nc(C3CC3)c2c1 (single isomer, unassigned) [Example 133, enantiomer 1, 5-((3-Cyclopropyl-1H-indazol-5-yl)oxy)-5,6,7,8-tetrahydroquinoline-2-carbonitrile] | 100 to 1000 nM | 1000 to 10000 nM |
| N#Cc1ccc2c(n1)CCC[C@H]2Oc1ccc2[nH]nc(C3CC3)c2c1 (single isomer, unassigned) [Example 133, enantiomer 2, 5-((3-Cyclopropyl-1H-indazol-5-yl)oxy)-5,6,7,8-tetrahydroquinoline-2-carbonitrile] | < 100 nM | 1000 to 10000 nM |
| N#Cc1ccc2c(c1)CC[C@@H]2Nc1ccc2[nH]nc(C3CC3)c2c1 (single isomer, unassigned) [Example 134, enantiomer 1, 1-((3-Cyclopropyl-1H-indazol-5-yl)amino)-2,3-dihydro-1H-indene-5-carbonitrile] | 100 to 1000 nM | 1000 to 10000 nM |
| N#Cc1ccc2c(c1)CC[C@@H]2Nc1ccc2[nH]nc(C3CC3)c2c1 (single isomer, unassigned) [Example 134, enantiomer 2, 1-((3-Cyclopropyl-1H-indazol-5-yl)amino)-2,3-dihydro-1H-indene-5-carbonitrile] | 100 to 1000 nM | 1000 to 10000 nM |
